Assay results: the NIST ThermoML archive (doi:10.1021/je300405a)

Details: Liquid; for speed of sound: Pulse-echo method; for mass density: Vibrating tube method

CCCCCCCCCC(=O)OC [methyl decanoate]
Details	mass density, 293.15 K [kg/m3]	mass density, 303.15 K [kg/m3]	mass density, 313.15 K [kg/m3]	mass density, 323.15 K [kg/m3]	mass density, 333.15 K [kg/m3]	mass density, 343.15 K [kg/m3]	speed of sound, 283.15 K [m/s]	speed of sound, 303.15 K [m/s]	speed of sound, 323.15 K [m/s]	speed of sound, 343.15 K [m/s]
101.3 kPa	872.05	863.6	855.85	847.65	839.36	830.82	1362.6	1287.7	1214.8	1142.8
10000 kPa	878.88	870.96	863.12	855.36	847.25	839.54	1408.9	1339.2	1269.1	1202.4
20000 kPa	885.04	877.43	869.91	862.49	854.44	847.61	1452.2	1385.8	1319.3	1255.9
30000 kPa	890.91	883.54	876.23	869.02	861.45	854.58	1493.2	1429.6	1365.7	1304.9
40000 kPa	896.46	889.26	882.19	875.03	867.94	861.37	1531.7	1470.3	1409	1350.5
50000 kPa	901.66	894.61	887.77	880.76	873.98	867.59	1568	1508.7	1449.5	1393.5
60000 kPa	906.63	899.63	893.04	886.55	879.63	873.44	1602.6	1544.9	1487.8	1433.7
70000 kPa	911.3	904.55	898.12	891.71	885.02	–	1634.5	1580.2	1524	1471.7
80000 kPa	915.52	909.11	902.9	896.69	890.12	–	1666.4	1614.1	1558.3	–
90000 kPa	920.05	913.59	907.5	901.4	894.95	–	1696.9	1646.1	1591.2	–
100000 kPa	924.3	917.87	911.9	905.81	899.64	–	1726.9	1676.9	1623.3	–
110000 kPa	–	–	–	–	–	–	1755.2	1706.8	1653.9	–
120000 kPa	–	–	–	–	–	–	1783.4	1735.1	1684.6	–
130000 kPa	–	–	–	–	–	–	1809.5	1762.8	1711.9	–
140000 kPa	–	–	–	–	–	–	1835.9	1789.2	1739.6	–
150000 kPa	–	–	–	–	–	–	–	1815.2	1765.9	–
170000 kPa	–	–	–	–	–	–	–	1864.9	1817	–
190000 kPa	–	–	–	–	–	–	–	1912.7	1864.8	–
210000 kPa	–	–	–	–	–	–	–	1957.6	1910.9	–
